These results are taken from ChEMBL document CHEMBL1201862, “PubChem BioAssay data set” (2004).

Among the test systems are SW-620; SF-295; CAKI-1; HL-60; HCT-15; HT-29; ACHN; A498; NCI/ADR-RES; SK-MEL-28; SK-OV-3; UACC-257; EKVX; NCI-H226; NCI-H522; K562; MDA-N; BT-549; HCC 2998.
Common to all, as to assay: NCI-60 cell line screen, 48 h

Each structure is given as a SMILES string.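 All cell lines were grown in 96-well plates and treated with compound for 48 hours. GI50 = concentration required for 50% inhibition of growth.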 The source made the active and inactive calls. Rule as the data show it: active = GI50 up to about 1.1 µM and inactive = higher.

Consider `Nn1c(=O)[nH]c2ncn(Cc3ccccc3)c2c1=O`, for which the GI50 in the assay with SW-620 is > 100 µM (inactive); in the assay on SF-295 it was > 100 µM (inactive); in the assay with CAKI-1, > 100 µM (inactive); in the assay on HL-60, > 100 µM (inactive); in the assay on HCT-15, greater than 100 µM; with HT-29, > 100 µM (inactive). The GI50 with ACHN, in the assay on A498, in the assay on NCI/ADR-RES, in the assay on SK-MEL-28, in the assay with SK-OV-3 and in the assay on UACC-257 was > 100 µM (inactive) in each case. In addition, the GI50 in the assay on EKVX, with NCI-H226, in the assay on NCI-H522, in the assay with K562, with MDA-N and in the assay with BT-549 was > 100 µM (inactive) throughout. Also, the GI50 with HCC 2998 was > 100 µM (inactive).

Take `C1=C\SS/C=C\SS/C=C\SS/C=C\SS/1`: the GI50 is 51.4 µM (inactive) with SW-620; 45.3 µM (inactive) in the assay with SF-295; 30.3 µM (inactive) with CAKI-1; 24.9 µM (inactive) in the assay with HL-60; 21.5 µM in the assay on HCT-15; 31.6 µM (inactive) in the assay on HT-29. Further, the GI50 in the assay with ACHN is > 100 µM (inactive); in the assay on A498, > 100 µM (inactive); in the assay with NCI/ADR-RES it was > 100 µM (inactive); with SK-MEL-28 it was > 100 µM (inactive); in the assay on SK-OV-3 it was > 100 µM (inactive); in the assay with UACC-257, 78.5 µM (inactive). The GI50 in the assay on EKVX was > 100 µM (inactive); with NCI-H226, > 100 µM (inactive); with NCI-H522, 15.2 µM (inactive); in the assay on K562, 27.9 µM (inactive); in the assay on MDA-N it was > 100 µM (inactive); in the assay on BT-549, > 100 µM (inactive). Moreover, the GI50 with HCC 2998 is > 100 µM (inactive).

Turning to `COc1ccc(/C=C2\C[C@H]3[C@@H]4CCC5=CC(=O)CC[C@]5(C)[C@H]4CC[C@]3(C)C2=O)cc1OC`, the GI50 was 21.1 µM (inactive) with SW-620; 0.0635 µM (active) in the assay on SF-295; 6.97 µM (inactive) in the assay on CAKI-1; 1.37 µM (inactive) in the assay with HL-60; 9.25 µM in the assay on HCT-15; 6.87 µM (inactive) in the assay with HT-29. Further, the GI50 in the assay with ACHN is 9.04 µM (inactive); in the assay on A498, 3.25 µM (inactive); in the assay with NCI/ADR-RES it was 6.27 µM (inactive); in the assay with SK-MEL-28, 40.7 µM (inactive); in the assay on SK-OV-3 it was 0.0627 µM (active); in the assay on UACC-257 it was 4.6 µM (inactive). Moreover, the GI50 with EKVX is 8.41 µM (inactive); with NCI-H226, 11.1 µM (inactive); with NCI-H522, 2.74 µM (inactive); with K562, 3.8 µM (inactive); with MDA-N it was 5.94 µM (inactive); in the assay with BT-549, 6.34 µM (inactive). The GI50 with HCC 2998 was 21.8 µM (inactive).

As to `CCN(CC)CCOc1ccc(N2Cc3ccccc3C2=O)cc1`, the GI50 with SW-620 is > 10 µM (inactive); in the assay with SF-295 it was > 10 µM (inactive); with CAKI-1 it was > 10 µM (inactive); in the assay with HL-60, > 10 µM (inactive); in the assay with HCT-15 it was greater than 10 µM; with HT-29, > 10 µM (inactive). In addition, the GI50 with ACHN, in the assay with A498, in the assay on NCI/ADR-RES, in the assay with SK-MEL-28, with SK-OV-3 and in the assay with UACC-257 was > 10 µM (inactive) throughout. Further, the GI50 with EKVX, in the assay on NCI-H226, with NCI-H522, in the assay with K562, in the assay on MDA-N and in the assay with BT-549 was > 10 µM (inactive) each time. Besides, the GI50 in the assay with HCC 2998 was > 10 µM (inactive).

On to `COC(=O)c1ccccc1C1CN=NC12Cc1cc(C)c(C)cc1C2=O` (stereo not given), for which the GI50 in the assay with SW-620 is 51.6 µM (inactive); in the assay with SF-295, 37.5 µM (inactive); in the assay with CAKI-1, 61.2 µM (inactive); with HL-60 it was 21.8 µM (inactive); in the assay on HCT-15, 32.7 µM; in the assay with HT-29 it was 29.4 µM (inactive). Further, the GI50 is 40.2 µM (inactive) in the assay on ACHN; 25.8 µM (inactive) in the assay with A498; 23.6 µM (inactive) with NCI/ADR-RES; 87.7 µM (inactive) with SK-MEL-28; 40.3 µM (inactive) with SK-OV-3; 14.5 µM (inactive) in the assay on UACC-257. In addition, the GI50 in the assay on EKVX was 42.1 µM (inactive); in the assay with NCI-H226 it was > 100 µM (inactive); in the assay with NCI-H522 it was 14.3 µM (inactive); in the assay on K562, 20 µM (inactive); in the assay on MDA-N, 33.7 µM (inactive); with BT-549, 65.9 µM (inactive). Moreover, the GI50 with HCC 2998 is 55.2 µM (inactive).

For the compound `CC1(C)OCC(C2CCC3(C)C4=CCC5C(C)(C)C(O)CCC5(C)C4CCC23C)CC(O)C1O` (stereo not given), the GI50 in the assay with SW-620 is 17.8 µM (inactive); in the assay on SF-295, 16.9 µM (inactive); with CAKI-1, 14 µM (inactive); with HL-60, 12.3 µM (inactive); in the assay with HCT-15, 15.8 µM; with HT-29, 18.2 µM (inactive). Further, the GI50 in the assay with ACHN was 20.2 µM (inactive); with A498 it was 24.7 µM (inactive); in the assay with NCI/ADR-RES, 20.3 µM (inactive); in the assay with SK-MEL-28, 17.3 µM (inactive); with SK-OV-3, 18.3 µM (inactive); in the assay with UACC-257, 12.2 µM (inactive). For the same compound, the GI50 with EKVX is 14.6 µM (inactive); in the assay on NCI-H226, 17.3 µM (inactive); in the assay with NCI-H522 it was 20 µM (inactive); with K562 it was 4.22 µM (inactive); in the assay on MDA-N, 17.9 µM (inactive); in the assay on BT-549 it was 15.9 µM (inactive). Moreover, in the assay on HCC 2998, the GI50 is 15.5 µM (inactive).

As to `Cc1ccc(-n2cc(-c3ccc(Cl)cc3)c3c2N=CN2N=C(c4cccs4)NC32)cc1` (stereo not given), the GI50 in the assay on SW-620 was 14.4 µM (inactive); with SF-295 it was 9.18 µM (inactive); with CAKI-1 it was 16 µM (inactive); with HL-60 it was 19.1 µM (inactive); in the assay on HCT-15 it was 51.8 µM; in the assay with HT-29 it was 23 µM (inactive). The GI50 with ACHN was 5.07 µM (inactive); with A498, 14.7 µM (inactive); in the assay with NCI/ADR-RES, 9.68 µM (inactive); in the assay with SK-MEL-28, > 100 µM (inactive); in the assay on SK-OV-3, 14.9 µM (inactive); in the assay with UACC-257, 38.9 µM (inactive). Further, the GI50 is 18.1 µM (inactive) in the assay on EKVX; 19.3 µM (inactive) with NCI-H226; 21.6 µM (inactive) in the assay with NCI-H522; 11.7 µM (inactive) in the assay with K562; 26.8 µM (inactive) in the assay with MDA-N; 20.1 µM (inactive) in the assay on BT-549. Further, the GI50 in the assay on HCC 2998 was 57 µM (inactive).

As to `O[C@H]1[C@H](O)[C@@H](Cn2nnc(-c3ccccc3)c2-c2ccccc2)OCO[C@@H]1Cn1nnc(-c2ccccc2)c1-c1ccccc1`, the GI50 with SW-620 was 5.22 µM (inactive); with SF-295 it was 3.78 µM (inactive); with CAKI-1, 5.73 µM (inactive); in the assay with HL-60, 3.88 µM (inactive); with HCT-15 it was 3.1 µM; in the assay on HT-29, 2.26 µM (inactive). Also, the GI50 was 3.63 µM (inactive) in the assay on ACHN; 6.47 µM (inactive) with A498; 7.24 µM (inactive) in the assay with NCI/ADR-RES; 6.18 µM (inactive) in the assay with SK-MEL-28; 3.38 µM (inactive) in the assay on SK-OV-3; 4.32 µM (inactive) in the assay on UACC-257. The GI50 is 6.47 µM (inactive) in the assay with EKVX; 5.9 µM (inactive) with NCI-H226; 5.31 µM (inactive) in the assay on NCI-H522; 4.01 µM (inactive) with K562; 3.84 µM (inactive) with MDA-N; 5.31 µM (inactive) in the assay on BT-549. Further, the GI50 in the assay on HCC 2998 was 2.24 µM (inactive).

As to `Cc1ccc(C(=O)Nc2ccc(CP(=O)(O)O)cc2CP(=O)(O)O)cc1N`, the GI50 in the assay with SW-620 was > 100 µM (inactive); with SF-295 it was > 100 µM (inactive); in the assay with CAKI-1, > 100 µM (inactive); with HL-60 it was > 100 µM (inactive); with HCT-15, greater than 100 µM; in the assay on HT-29, > 100 µM (inactive). The GI50 in the assay on ACHN, in the assay with A498, in the assay with NCI/ADR-RES, in the assay with SK-MEL-28, in the assay with SK-OV-3 and in the assay with UACC-257 was > 100 µM (inactive) in each case. The GI50 with EKVX, in the assay with NCI-H226, in the assay on NCI-H522, in the assay with K562, in the assay on MDA-N and in the assay with BT-549 was > 100 µM (inactive) each time. Also, in the assay with HCC 2998, the GI50 was > 100 µM (inactive).

As for `CCOP(=O)(OCC)C1=C(c2ccccc2)OC(N)=C(C#N)C1c1ccc(Cl)cc1` (stereo not given), the GI50 was > 100 µM (inactive) with SW-620; > 100 µM (inactive) with SF-295; > 100 µM (inactive) in the assay on CAKI-1; > 100 µM (inactive) in the assay with HL-60; greater than 100 µM with HCT-15; > 100 µM (inactive) with HT-29. Further, the GI50 with ACHN, with A498, in the assay with NCI/ADR-RES, in the assay with SK-MEL-28, with SK-OV-3 and in the assay with UACC-257 was > 100 µM (inactive) each time. Moreover, the GI50 is > 100 µM (inactive) in the assay with EKVX; > 100 µM (inactive) with NCI-H226; 67.9 µM (inactive) in the assay with NCI-H522; > 100 µM (inactive) in the assay with K562; > 100 µM (inactive) with MDA-N; > 100 µM (inactive) in the assay on BT-549. For the same compound, the GI50 with HCC 2998 was 79.3 µM (inactive).
